According to ChEMBL document CHEMBL1153068, “Discriminatory synergistic effect of Trp-substitutions in superagonist [(Arg/Lys)(14), (Arg/Lys)(15)]nociceptin on ORL1 receptor binding and activation” (Bioorg Med Chem, 2009):

Legend:
[1] = target: Nociceptin receptor (Rattus norvegicus) (UniProt P35370); experiment: Relative potency, ratio of wild type nociceptin EC50 to compound EC50 for stimulation of [35S]GTPgammaS binding to rat ORL1 receptor expressed in african green monkey COS7 cells; format: functional, cell-based; conditions: COS-7
Sequence of Nociceptin receptor (Rattus norvegicus) (P35370 whole entry): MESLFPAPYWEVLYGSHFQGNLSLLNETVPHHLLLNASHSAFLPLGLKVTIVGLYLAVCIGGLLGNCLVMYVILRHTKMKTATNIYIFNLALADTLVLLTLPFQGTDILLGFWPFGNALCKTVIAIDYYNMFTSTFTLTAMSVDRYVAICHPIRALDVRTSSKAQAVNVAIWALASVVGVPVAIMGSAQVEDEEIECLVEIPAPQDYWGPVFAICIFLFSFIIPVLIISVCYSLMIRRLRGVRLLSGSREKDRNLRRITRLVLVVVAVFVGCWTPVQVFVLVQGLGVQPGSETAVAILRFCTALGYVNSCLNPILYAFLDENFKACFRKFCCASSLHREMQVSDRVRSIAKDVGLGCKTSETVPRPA

[2] = target: Nociceptin receptor (Rattus norvegicus) (UniProt P35370); experiment: Relative potency, ratio of wild type nociceptin IC50 to compound IC50 for rat ORL1 receptor expressed in african green monkey COS7 cells; format: cell-based; conditions: COS-7
Nociceptin receptor [3] = target: T1, Nociceptin receptor (Rattus norvegicus, UniProt P35370); experiment: Displacement of [3H]nociceptin from rat ORL1 receptor expressed in african green monkey COS7 cells by competitive binding assay; format: cell-based, COS-7
T1 sequence (P35370 whole entry): as above

Nociceptin receptor [4] = target: T1, Nociceptin receptor; experiment: Agonist activity at rat ORL1 receptor expressed in african green monkey COS7 cells assessed as stimulation of [35S]GTPgammaS binding by radioligand receptor-binding assay; format: functional, cell-based, COS-7

Compound | Ratio EC50 [1] | Ratio IC50 [2] | IC50 (Nociceptin receptor [3]) [pM] | EC50 (Nociceptin receptor [4]) [pM]
H-FGGFTGARKSARKKWNQ-OH | 4.06 | 2.35 | 310 | 3200
H-FGGFTGARKSARKWKNQ-OH [listing 1 of 2 here] | 10 | 2.92 | – | –
H-FGGFTGARKSARKWKNQ-OH [listing 2 of 2 here] | – | – | 250 | 1300
H-FGGFTGARKSARKLWNQ-OH | 0.26 | 0.35 | – | –
C[C@H](NC(=O)CNC(=O)[C@@H](NC(=O)[C@H](Cc1ccccc1)NC(=O)CNC(=O)CNC(=O)[C@@H](N)Cc1ccccc1)[C@@H](C)O)C(=O)N[C@@H](CCCNC(=N)N)C(=O)N[C@@H](CCCCN)C(=O)N[C@@H](CO)C(=O)N[C@@H](C)C(=O)N[C@@H](CCCNC(=N)N)C(=O)N[C@@H](CCCCN)C(=O)N[C@@H](CCCNC(=N)N)C(=O)N[C@@H](CCCCN)C(=O)N[C@@H](CC(N)=O)C(=O)N[C@@H](CCC(N)=O)C(=O)O | 11.8 | 3.48 | – | –
H-FGGFTGARKSARKWRNQ-OH | 10 | 3.17 | 230 | 1300
H-FGGFTGARKSARKWANQ-OH | 2.24 | 1.78 | – | –
H-FGGFTGARKSARKRWNQ-OH | 4.19 | 2.43 | 300 | 3100
